Here are results for one compound from US8021672B2, “Development of a Chlamydia sp. vaccine strain” (priority 2006, dated 2011).

Data set [1] deals with McCoy cells. The experiment in a line: Iodine staining of Chlamydia-infected cells for glycogen accumulation. The class given is cell-based. Particulars: Nigg-infected McCoy monolayers, 62.5 μg ml^−1. From the text:
Iodine staining of Chlamydia-infected cells. McCoy cells cultured on glass cover slips were infected as described above. At the desired point in the infection the culture medium was removed and the monolayer rinsed several times with 1×HBSS before being fixed and stained with iodine (Schachter J & Dawson, 1978) in order to detect the presence of accumulated glycogen. Stained cells were immediately photographed using a digital camera system and SPOT version 4.0.6 software from Diagnostic Instruments Inc. (Sterling Heights, Mich.).
Plasmid-deficient C. muridarum fail to accumulate glycogen within inclusions.

Data set [2] has as its system C. muridarum strain Nigg. Briefly: Effect of novobiocin treatment on replication of Chlamydiae (titration by plaque assay). The class given is cell-based. The settings on record: novobiocin 62.5 μg ml^−1 added 4 hours post infection. The text has this: FIG. 1. Effect of novobiocin treatment on replication of C. muridarum strain Nigg. The novobiocin-treated Chlamydiae were harvested and plated by centrifugation to generate individual plaques for titration. The relative infectious yield of strain Nigg at each novobiocin concentration was derived by normalizing the total infectious yield per treated population against the yield from the untreated control. The graph is drawn from a single representative experiment with each point assayed in duplicate.
Cell culture media and reagents were purchased from Mediatech (Hearndon, Va.). Wells containing confluent monolayers of McCoy cells were infected at an approximate MOI of 0.5-1, before being centrifuged for 1 hour at 37° C. The infective inoculum was then removed and replaced with 1× Dulbecco's modified Eagle's medium (DMEM) supplemented with 10% heat-inactivated FBS, gentamicin (20 μg ml^−1) and 0.1 μg ml^−1 cycloheximide. We have previously determined that concentrations in excess of 250 μg ml^−1 are cytotoxic for uninfected McCoy cells. Novobiocin (Sigma, St. Louis, Mo.) was added at the indicated concentrations (up to 250 μg ml^−1) at 4 hours post infection. Infected cells were incubated at 37° C., 5% CO2 for a further 36 hours. […]
Effect of novobiocin treatment on replication of Chlamydiae. […] The titers of novobiocin-treated bacteria were measured by plaque assays (FIG. 1). […]

The test system of data set [3] is plasmid. Particulars: 20 μg ml^−1 in conjunction with imipramine; cited from earlier work.
Data set [4] concerns uninfected McCoy cells. Briefly: Cytotoxicity of novobiocin for uninfected host cells. It is filed as cell-based. As for the experimental part: Cell culture media and reagents were purchased from Mediatech (Hearndon, Va.). Wells containing confluent monolayers of McCoy cells were infected at an approximate MOI of 0.5-1, before being centrifuged for 1 hour at 37° C. The infective inoculum was then removed and replaced with 1× Dulbecco's modified Eagle's medium (DMEM) supplemented with 10% heat-inactivated FBS, gentamicin (20 μg ml^−1) and 0.1 μg ml^−1 cycloheximide. We have previously determined that concentrations in excess of 250 μg ml^−1 are cytotoxic for uninfected McCoy cells. Novobiocin (Sigma, St. Louis, Mo.) was added at the indicated concentrations (up to 250 μg ml^−1) at 4 hours post infection. Infected cells were incubated at 37° C., 5% CO2 for a further 36 hours. Infected cells were harvested into SPG buffer (218 mM sucrose, 3.8 mM KH2PO4, 7.2 mM K2HPO4, 4.9 mM L-glutamate, pH 7.2) at 40 hours post infection, sonicated, and stored at −80° C. Bacteria were subsequently titrated by plaque assay or as inclusion forming units (IFU) using a genus-specific fluorescently tagged monoclonal antibody (Biorad, Hercules, Calif.).

Molecules are shown by their SMILES.

`CO[C@@H]1[C@@H](OC(N)=O)[C@@H](O)[C@H](Oc2ccc3c(O)c(NC(=O)c4ccc(O)c(CC=C(C)C)c4)c(=O)oc3c2C)OC1(C)C` [novobiocin]: the “iodine staining of inclusions under novobiocin treatment” value in data set [1] was “variable iodine staining of inclusions”. For the same compound, the “reduction of relative infectious yield of bacteria” value in data set [2] is reported as “at least 100 fold”. Also, in data set [3], the “effect on plasmid copy number” value was “plasmid copy number increases”. For the same compound, the “concentrations cytotoxic for uninfected McCoy cells” value in data set [4] is > 250 µg/mL.
